The text below walks through data of paper PMC8840560, “Naphthoquine: A Potent Broad-Spectrum Anti-Coronavirus Drug In Vitro” (Molecules, 2022).

Like-named read-outs stand apart in the source and are kept apart here.

Series [1] deals with HCoV-OC43. As to the kind of experiment: CPE inhibition assay, HCoV-OC43-infected H460 cells. Format: cell-based. The conditions noted are these: for IC50: Betacoronavirus 1, NCI-H460, HCoV-OC43 (100 TCID50) in H460 cells, CPE, about 72 h, Reed-Muench.
Series [2] can be described thus: in vitro. The following applies: human, Huh7 cells.
The nature of series [3]: in vitro. The following applies: human, H460 cells.
In series [4] the test system is HCoV-229E. As to the kind of experiment: CPE inhibition assay, HCoV-229E-infected Huh7 cells. Format: cell-based. The following applies: for IC50: Human coronavirus 229E.
Series [5] relates to SARS-CoV-2. Also noted: method as in PMID 32194981, PMID 33995308. The following applies: in vitro; read-out: IC50 anti-SARS-CoV-2 in vitro; cited from earlier work.
Series [6] concerns SARS-CoV-2. As to the kind of experiment: Anti-SARS-CoV-2 activity in Vero cells by qRT-PCR of viral RNA in supernatant. Format: cell-based. The following applies: Severe acute respiratory syndrome coronavirus 2; SARS-CoV-2 (100 TCID50) in Vero cells, qRT-PCR of supernatant RNA at 48 h, 12 h pretreatment. In general terms: Real-time PCR tracks product formation cycle by cycle.
Series [7] deals with SARS-CoV-2. The experiment in a line: Time-of-addition assay against SARS-CoV-2 in Vero cells. It is filed as cell-based. The following applies: 10 µM, qRT-PCR at 48 h.

As for `NC(=O)c1ncn([C@@H]2O[C@H](CO)[C@@H](O)[C@H]2O)n1` [RBV, Ribavirin], the SI in series [1] is listed as 15.34; in series [4] it was 26.54. Also, the IC50 came out at 20.7 ± 7.86 µM in series [1] and 15.4 ± 5.57 µM in series [4] (Huh-7, HCoV-229E (100 TCID50) in Huh7 cells, CPE, about 48 h, Reed-Muench, read-out: IC50). Besides, the CC50 at 2 days in series [2] worked out at 409 µM; in series [3], 318 µM.
In the case of `OC(c1cc(C(F)(F)F)nc2c(C(F)(F)F)cccc12)C1CCCCN1` (stereo not shown) [mefloquine], the IC50 in series [5] is less than 10 µM.
In the case of `CCN(CC)CCCC(C)Nc1ccnc2cc(Cl)ccc12` (stereo not shown) [CQ, Chloroquine phosphate], the IC50 in series [1] was 3.16 ± 0.6 µM; in series [6], 5.85 ± 0.97 µM; in series [4] (Huh-7, 48 h), 8.74 ± 7.27 µM; in series [5], less than 10 µM. In addition, in series [7], the “inhibition of SARS-CoV-2 infection at all time points (full-time, first 3 h, last 46 h)” value is given as “effectively inhibit SARS-CoV-2 infection at all time points”.
`CCN(CCO)CCCC(C)Nc1ccnc2cc(Cl)ccc12` (stereo not shown) [HCQ, hydroxychloroquine]: in series [5], the IC50 was less than 10 µM.

In general, IC50 refers to the midpoint of a concentration-inhibition curve. As a reminder, the CC50 is the concentration at which the toxic effect on the cells reaches its halfway point. A high value points to better tolerance by the cells.
